Laboratory results from patent US20210169871A1, “PHARMACEUTICAL COMPOSITIONS WITH REDUCED TERT-BUTANOL LEVELS” (TARVEDA THERAPEUTICS, INC., priority 2018, published 2021).
Marks after values point to notes of the source that are not given here.

Columns and labels:
[1] = Residual TBA in lyophilized drug product by gas chromatography (GC-HS); assay type: physicochemical; parameters: key to Residual TBA: TBA weight percentage in dry powder
Experimental: SDC-TRAP-0063 synthesized in Example 1 was dissolved in an alkaline co-solvent system comprising 30% (by volume) tert-butanol (TBA) and water to obtain a drug solution. Various polyols, such as PEG, glycerol and propylene glycol (PG), were added to the drug solution in vials prior to the standard lyophilization cycle (freezing→annealing→primary drying→secondary drying). Dry powder drug products comprising SDC-TRAP-0063 sodium were obtained. TBA weight percentages in the dry powders were measured by gas chromatography (GC-HS) (Table 1).

[2] = pH, testing of lyophilized drug product; assay type: physicochemical
[3] = Residual moisture of lyophilized drug product; assay type: physicochemical; details: 100 mg/mL, 30% TBA, 4% PEG 400; Standard cycle (Table 2)
[4] = pH-dependent lactone / open ring carboxylic acid equilibrium in solution; assay type: physicochemical
From the text: In solution, SDC-TRAP-0063 contains a lactone ring at pH-dependent equilibrium with the corresponding open chain carboxylic acid form. At high pH (above pH of around 9) the equilibrium shifts toward an open ring carboxylic acid form and at low pH it shifts toward the closed ring lactone form.
During the manufacturing process, SDC-TRAP-0063 is converted to SDC-TRAP-0063 Sodium, which is the dominant form at pH above approximately 9.3. SDC-TRAP-0063 Sodium drug product is aseptically manufactured as a sterile-filtered solution that is lyophilized. […] There is minimal impact from annealing or secondary drying modifications on TBA level in SDC-TRAP-0063 Sodium drug product.

[5] = Residual TBA in lyophilized drug product by gas chromatography (GC-HS); assay type: physicochemical; parameters: key: TBA weight percentage in dry powder; details: 100 mg/mL
[6] = Solubility in water
[7] = Stability of SDC-TRAP-0063 sodium with added excipients
[8] = 100 mg/mL, 15% TBA, 3% PEG 400, NaOH 5.5 g/100 g (Table 3)
[9] = 100 mg/mL, 15% TBA, 6% Mannitol (Table 4)
[10] = 100 mg/mL, 30% TBA, 1% glycerol, standard lyophilization cycle (Table 1)
[11] = 100 mg/mL, 30% TBA, 2% PG, standard lyophilization cycle (Table 1)
[12] = 100 mg/mL, 30% TBA, 2% glycerol, standard lyophilization cycle (Table 1)
[13] = 100 mg/mL, 30% TBA, 3% PEG 400, NaOH 5.5 g/100 g (Table 3)
[14] = 100 mg/mL, 30% TBA, 3% PEG 400, standard lyophilization cycle (Table 1)
[15] = 100 mg/mL, 30% TBA, 3% glycerol, Standard cycle (Table 2)
[16] = 100 mg/mL, 30% TBA, 3.5% PEG 400, Standard cycle (Table 2)
[17] = 100 mg/mL, 30% TBA, 3.5% glycerol, Standard cycle (Table 2)
[18] = 100 mg/mL, 30% TBA, 4% PEG 400, BnOH 0.1 mg/vial, NaOH 5.5 g/100 g (Table 3)
[19] = 100 mg/mL, 30% TBA, 4% PEG 400, NaOH 5 g/100 g (Table 3)
[20] = 100 mg/mL, 30% TBA, 4% PEG 400, NaOH 5.5 g/100 g (Table 3)
[21] = 100 mg/mL, 30% TBA, 4% PEG 400, Standard cycle (Table 2)
[22] = 100 mg/mL, 30% TBA, 4% PEG 400, standard lyophilization cycle (Table 1)
[23] = 100 mg/mL, 30% TBA, 4% PEG 1000 (Table 4)
[24] = 100 mg/mL, 30% TBA, 4% PEG 2000 (Table 4)
[25] = 100 mg/mL, 30% TBA, 4% PEG 4000 (Table 4)
[26] = 100 mg/mL, 30% TBA, 4% PG, standard lyophilization cycle (Table 1)
[27] = 100 mg/mL, 30% TBA, 4% glycerol, Standard cycle (Table 2)
[28] = 100 mg/mL, 30% TBA, 4% glycerol, standard lyophilization cycle (Table 1)

SMILES: CCc1c2c(nc3ccc(OC(=O)N4CCC(CCn5ccc6cc(-n7c(O)nnc7-c7cc(C(C)C)c(O)cc7O)ccc65)CC4)cc13)-c1cc3c(c(=O)n1C2)COC(=O)[C@]3(O)CC [SDC-TRAP-0063, (S)-4,11-diethyl-4-hydroxy-3,14-dioxo-3,4,12,14-tetrahydro-1H-pyrano[3′,4′:6,7]indolizino[1,2-b]quinolin-9-yl 4-(2-(5-(3-(2,4-dihydroxy-5-isopropylphenyl)-5-hydroxy-4H-1,2,4-triazol-4-yl)-1H-indol-1-yl)ethyl)piperidine-1-carboxylate]
- Residual TBA [1, 8]: 3.3%
- Residual TBA [1, 9]: 6.6%
- Residual TBA ([1]; 100 mg/mL, 30% TBA, 0% PEG 400, 0% glycerol, Standard cycle, average (Table 2)): 7% avg
- Residual TBA ([1]; 100 mg/mL, 30% TBA, 0% PEG 400, BnOH 0 mg/vial, NaOH 0 g/100 g, average (Table 3)): 7% avg
- Residual TBA ([1]; 100 mg/mL, 30% TBA, 0% PEG 1000, 0% PEG 2000, 0% PEG 4000, 0% Mannitol, average (Table 4)): 7% avg
- Residual TBA [1, 10]: 7.1%
- Residual TBA [1, 11]: 4.1%
- Residual TBA [1, 12]: 5.2%
- Residual TBA [1, 13]: 4.1%
- Residual TBA [1, 14]: 3.6%
- Residual TBA [1, 15]: 3.8%
- Residual TBA [1, 16]: 3.3%
- Residual TBA [1, 17]: 3.3%
- Residual TBA ([1]; 100 mg/mL, 30% TBA, 4% PEG 400, 5% Mannitol (Table 5)): 0.54
- Residual TBA ([1]; 100 mg/mL, 30% TBA, 4% PEG 400, 7.5% Mannitol (Table 5)): 1.36
- Residual TBA ([1]; 100 mg/mL, 30% TBA, 4% PEG 400, 10% Mannitol (Table 5)): 2.22
- Residual TBA [1, 18]: 2.4%
- Residual TBA [1, 19]: 1.9%
- Residual TBA [1, 20]: 2.2%
- Residual TBA [1, 21]: 2.7%
- Residual TBA [1, 22]: 2.0%
- Residual TBA [1, 23]: 2.3%
- Residual TBA [1, 24]: 2.2%
- Residual TBA [1, 25]: 2.3%
- Residual TBA [1, 26]: 1.5%
- Residual TBA [1, 27]: 1.8%
- Residual TBA [1, 28]: 1.2%
- Residual TBA ([1]; 100 mg/mL, 30% TBA, 5% PEG 400, 5% Mannitol (Table 5)): 0.11
- Residual TBA ([1]; 100 mg/mL, 30% TBA, 5% PEG 400, 7.5% Mannitol (Table 5)): 0.26
- Residual TBA ([1]; 100 mg/mL, 30% TBA, 5% PEG 400, 10% Mannitol (Table 5)): 0.74
- Residual TBA ([1]; 100 mg/mL, 30% TBA, 6% PEG 400, 5% Mannitol (Table 5), below the limit of quantitation of the method): 0.05*
- Residual TBA ([1]; 100 mg/mL, 30% TBA, 6% PEG 400, 7.5% Mannitol (Table 5), below the limit of quantitation of the method): 0.09*
- Residual TBA ([1]; 100 mg/mL, 30% TBA, 6% PEG 400, 10% Mannitol (Table 5)): 0.16
- Residual TBA with 4% PEG-400 ([1]; 4% of PEG-400): 2.5-2.7%
- Residual TBA ([1]; pre-lyophilization solution 100 mg/mL, 30% TBA, 0% PEG 400, 0% glycerol, 0% PG, standard lyophilization cycle, average): 7% avg
- pH [2, 8]: 10.0
- pH ([2]; 100 mg/mL, 15% TBA, 4% Mannitol (Table 4)): 9.8
- pH [2, 9]: 9.8
- pH ([2]; 100 mg/mL, 30% TBA, 0% PEG 400, 0% glycerol, Standard cycle (Table 2)): 10.1-10.3
- pH ([2]; 100 mg/mL, 30% TBA, 0% PEG 400, BnOH 0 mg/vial, NaOH 0 g/100 g (Table 3)): 10.1-10.3
- pH ([2]; 100 mg/mL, 30% TBA, 0% PEG 1000, 0% PEG 2000, 0% PEG 4000, 0% Mannitol (Table 4)): 10.1-10.3
- pH [2, 10]: 10.2
- pH [2, 11]: 10.2
- pH [2, 12]: 10.2
- pH [2, 13]: 9.9
- pH [2, 14]: 10.1
- pH ([2]; 100 mg/mL, 30% TBA, 3% glycerol, No secondary drying (Table 2)): 10.1
- pH [2, 15]: 10.1
- pH ([2]; 100 mg/mL, 30% TBA, 3.5% PEG 400, No secondary drying (Table 2)): 10.1
- pH [2, 16]: 10.0
- pH [2, 17]: 10.1
- pH [2, 18]: 10.0
- pH [2, 19]: 9.5
- pH [2, 20]: 9.9
- pH [2, 21]: 10.1
- pH [2, 22]: 10.1
- pH [2, 23]: 9.7
- pH [2, 24]: 9.9
- pH [2, 25]: 9.8
- pH [2, 26]: 10.1
- pH [2, 27]: 10.1
- pH [2, 28]: 10.2
- pH ([2]; pre-lyophilization solution 100 mg/mL, 30% TBA, 0% PEG 400, 0% glycerol, 0% PG, standard lyophilization cycle): 10.1-10.3
- Residual Moisture [3]: 0.26%
- pH above which equilibrium shifts toward open ring carboxylic acid form [4]: around 9
- Residual TBA ([5]; 15% TBA, 4% Mannitol (Table 4)): 6.0%
- Residual TBA ([5]; 30% TBA, 3% glycerol, No secondary drying (Table 2)): 4.0%
- Residual TBA ([5]; 30% TBA, 3.5% PEG 400, No secondary drying (Table 2)): 3.2%
- Solubility in water [6]: does not have good solubility in water
- Stability profile with 4% PEG-400 ([7]; 4% of PEG-400): stability profile is acceptable
- Stability profile with glycerol as excipient ([7]; glycerol as excipient, compared with PEG-400): slightly worse stability profile

SMILES: CCc1c2c(nc3ccc(OC(=O)N4CCC(CCn5ccc6cc(-n7c(O)nnc7-c7cc(C(C)C)c(O)cc7O)ccc65)CC4)cc13)-c1cc([C@@](O)(CC)C(=O)[O-])c(CO)c(=O)n1C2.[Na+] [SDC-TRAP-0063 sodium, Sodium (S)-2-(2-((4-(2-(5-(3-(2,4-dihydroxy-5-isopropylphenyl)-5-hydroxy-4H-1,2,4-triazol-4-yl)-1H-indol-1-yl)ethyl)piperidine-1-carbonyl)oxy)-12-ethyl-8-(hydroxymethyl)-9-oxo-9,11-dihydroindolizino[1,2-b]quinolin-7-yl)-2-hydroxybutanoate]
- pH above which SDC-TRAP-0063 Sodium is the dominant form ([4]; manufacturing process): approximately 9.3
- Stability with PEG-400 addition ([7]; PEG-400 added as excipient): no impact on the stability
- Stability with propylene glycol addition ([7]; propylene glycol added as excipient): faster decay
